Laboratory results taken from ChEMBL document CHEMBL1140414, “Molecular modeling, synthesis, and preliminary biological evaluation of glutathione-S-transferase inhibitors as potential therapeutic agents” (J Med Chem, 2005).

Tests used:
[1] = biological target: T1, Glutathione S-transferase P (Homo sapiens, UniProt P09211); assay: Inhibition constant against glutathione S-transferase pi using GSH (0.1-3mM), 1 mM 1-chloro-2,4-dinitrobenzene
[2] = biological target: T1, Glutathione S-transferase P; assay: Inhibition against glutathione S-transferase pi using GSH (0.1-3mM), 1 mM 1-chloro-2,4-dinitrobenzene

T1 sequence (P09211 whole entry): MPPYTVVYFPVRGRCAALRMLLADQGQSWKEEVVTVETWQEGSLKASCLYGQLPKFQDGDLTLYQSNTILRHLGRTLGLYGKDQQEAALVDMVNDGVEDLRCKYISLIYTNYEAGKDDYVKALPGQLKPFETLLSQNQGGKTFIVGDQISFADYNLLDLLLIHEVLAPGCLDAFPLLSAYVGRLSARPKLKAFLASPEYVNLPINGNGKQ

| Compound | Ki [1] [µM] | IC50 [2] [µM] |
| --- | --- | --- |
| NC(CCC(=O)NC(CSC(C(=O)O)c1ccccc1)C(=O)NCC(=O)O)C(=O)O (stereo not drawn) | 0.66 | 5.5 |
| NC(CCC(=O)NC(CSCCO)C(=O)NCC(=O)O)C(=O)O (stereo not drawn) | 187 | 280 |
| NC(CCC(=O)NC(CSC(CO)c1ccccc1)C(=O)NCC(=O)O)C(=O)O (stereo not drawn) | 1.11 | 9 |
| NC(CCC(=O)NC(CSCC(O)c1ccccc1)C(=O)NCC(=O)O)C(=O)O (stereo not drawn) | 0.49 | 4.7 |
